Test results: US20140256638A1, “PEPTOID NEUTRALIZING AGENTS” (The Regents of the University of California, priority 2013, published 2014)

What was measured:
[1] = Coatest heparin in vitro assay; cited from earlier work
proteases = details: physiological conditions; cited from earlier work
[2] = Heparin Affinity Chromatography (HAC); format: binding; details: Table 4; heparin affinity column, gradient 0 to 1 M NaCl in pH 7.2, 50 mM sodium phosphate over 60 min, 0.65 mL/min
Method: The relative affinities of the peptoids in Table 2 for heparin were determined by heparin affinity chromatography (“HAC”). Peptoid solutions, typically 0.2 mM, were eluted by gradient elution; mobile phase A consisted of pH 7.2, 50 mM sodium phosphate buffer and mobile phase B consisted of the same buffer but with 1 M NaCl added. The flow rate was 0.65 mL/min and the gradient began with 100% mobile phase A and 0% mobile phase B, and ended at 60 min with 0% mobile phase A and 100% B although most of the peptoid runs were complete within 30 min or less.

[3] = Isothermal Titration Calorimetry (ITC) of peptoid-heparin binding; details: for TΔS: calculated from binding constant and ΔH; for ΔS: calculated from ΔG and ΔH; for ΔG: calculated from ΔG=−RTlnKb
Method: For Table 3, binding constants and other thermodynamic parameters were determined for the chiral 12-mer analogs by ITC. The S12mer data represents 3 trials, and the R12mer represents 2 trials. Values for the parameters Kb, AH and N are obtained by fitting the titration curves. AG is calculated from ΔG=−RTlnKb and ΔS is calculated from […].
Isothermal Titration Calorimetry (“ITC”) was used to determine directly ΔH, the binding constant and stoichiometry, and ΔS was then calculated from the binding constant and ΔH for the binding reaction between heparin and the peptoids produced in this study. In a typical ITC experiment, peptoid in buffer solution was placed in the sample cell and an equivalent quantity of the same buffer solution was placed in the reference cell. Heparin in buffer solution was placed in the titration syringe. Heparin titrant was added to the sample cell in 10 μL aliquots with 210 sec. between aliquots.
FIG. 11 presents the isotherm for the endothermic reaction. The resulting integrated titration curve is given in FIG. 12 for a reaction between 0.20 mM peptoid in the sample cell and 0.25 mM heparin in the titration syringe.

[4] = Table 4, ITC, heparin titrated into peptoid in buffer
[5] = Table 3, ITC, S12mer 3 trials, R12mer 2 trials

Substance	ΔH ([3]; Table 4, ITC)	Kd [3, 4]	TΔS ([3]; Table 4, ITC)	HAC r.t. [2]	further results
Ac-SRGKAKVKAKVKDQTK-NH2 (not fully specified; printed as Ac-SRGKAKVKAKVKDQTK-NH2) [L-HIPAP]	–	–	–	–	neutralizing heparin activity [1]: equally effective
Ac-SRGKAKVKAKVKDQTK-NH2 [D-HIPAP]	–	–	–	–	stability to proteases (proteases): more stable than L-HIPAP
Ac-SRGKAKVKAKVKDQTK-NH2 [L-HIPAP]	–	–	–	–	stability to proteases (proteases): more susceptible to degradation by proteases
H-[N(Arg)-N(Bu)-N(Spe)]2-NH2 [s6merG]	-2.862 ± 0.222 kcal/mol	20.6 ± 0.8 µM	2316 ± 32 cal/mol	13.5 ± 2.9 min	–
H-[N(Arg)-N(Bu)-N(Spe)]3-NH2 [s9merG]	-1.197 ± 0.071 kcal/mol	4.76 ± 2.3 µM	16.6 ± 1.7 cal/mol	20.8 ± 0.8 min	–
H-[N(Arg)-N(Bu)-N(Spe)]-NH2 [s3merG]	-0.6325 ± 0.0085 kcal/mol	140 ± 11 µM	2026.4 ± 159 cal/mol	3.8 ± 0.3 min	–
H-[N(Lys)-N(Bu)-N(Spe)]3-NH2 [s9merLys]	3.305 ± 0.064 kcal/mol	16.4 ± 11 µM	10,000 ± 54 cal/mole	14.6 ± 0.2 min	–
H-[N(Lys)G-N(Bu)-N(Spe)]3-N2 [s9merLysG]	-0.6151 ± 0.135 kcal/mol	5 ± 0.3 µM	3948 ± 56 cal/mol	20.6 ± 0.2 min	–
H-[N(Orn)-N(All)-N(Spe)]3-NH2 [s9merAll]	-0.931 ± 0.074 kcal/mol	8.3 ± 3.2 µM	4627 ± 41 cal/mol	20 ± 2.0 min	–
H-[N(Orn)-N(Bu)-N(Rpe)]4-NH2 [r12mer]	1.278 ± 0.379 kcal/mol	7.6 ± 4.2 µM	5664 ± 2.5 cal/mol	18.5 ± 0.6 min	Kd [3, 5]: 7.57 µM; ΔH [3, 5]: 1.278 kcal/mol; ΔS ([3]; Table 3, ITC): 19.01 cal/mole ° C.; ΔG ([3]; Table 3, ITC): -6.956 kcal/mol
H-[N(Orn)-N(Bz)-N(Spe)]3-NH2 [s9merBz]	-0.545 ± 0.121 kcal/mol	0.9 ± 0.4 µM	2851 ± 1.4 cal/mol	29.3 ± 0.5 min	–
H-[N(Orn)-N(Et)-N(Spe)]3-NH2 [s9merEt]	0.8223 ± 0.034 kcal/mol	10.9 ± 0.7 µM	5140 ± 37 cal/mol	16.5 ± 0.5 min	–
H-[N(Orn)-N(Pr)-N(Spe)]3-NH2 [s9merPr]	3.555 ± 0.056 kcal/mol	11.2 ± 0.7 µM	1427 ± 2.6 cal/mol	16.5 ± 0.7 min	–

More lines, in order of falling Kd [3, 4], values ahead:

ΔH ([3]; Table 4, ITC)	Kd [3, 4]	TΔS ([3]; Table 4, ITC)	Substance	HAC r.t. [2]	further results
0.3867 ± 0.237 kcal/mol	164 ± 32 µM	5057 ± 35 cal/mol	H-[N(Orn)-N(Bu)-N(Spe)]-NH2 [s3mer]	3.0 ± 0.6 min	–
0.565 ± 0.064 kcal/mol	44 ± 5 µM	7748 ± 880 cal/mol	H-[N(Orn)-N(Bu)-N(Spe)]2-NH2 [s6mer]	9.61 ± 1.1 min	–
0.814 ± 0.089 kcal/mol	18.6 ± 3.2 µM	7259 ± 45 cal/mol	H-[N(Orn)-N(Bu)-N(Spe)]3-NH2 [s9mer]	14.1 ± 1.2 min	–
2.381 ± 0.029 kcal/mol	11.7 ± 0.1 µM	8989 ± 15 cal/mol	H-[N(Cad)-N(Bu)-N(Spe)]3-NH2 [s9merCad]	16.3 ± 0.6 min	–
1.654 ± 0.011 kcal/mol	8.3 ± 2 µM	3161 ± 76 cal/mol	H-[N(Orn)-N(Me)-N(Spe)]3-NH2 [s9merMe]	18.1 ± 0.5 min	–
-1.634 ± 0.043 kcal/mol	5.6 ± 1.8 µM	4639 ± 36 cal/mol	H-[N(Arg)-N(Pr)-N(Spe)]3-NH2 [s9merPrG]	20.3 ± 0.6 min	–
-0.2835 ± 0.027 kcal/mol	5.5 ± 3.4 µM	7500 ± 32 cal/mol	H-[N(Cad)G-N(Bu)-N(Spe)]3-NH2 [s9merCadG]	20.1 ± 0.5 min	–
-2.176 ± 0.082 kcal/mol	4.3 ± 2.2 µM	3159 ± 115 cal/mol	H-[N(Arg)-N(Et)-N(Spe)]3-NH2 [s9merEtG]	21.5 ± 0.5 min	–
1.733 ± 0.047 kcal/mol	4.11 ± 0.6 µM	9097 ± 30 cal/mol	H-[N(Orn)-N(Bu)-N(Spe)]4-NH2 [s12mer]	21.6 ± 0.6 min	relative binding affinity to heparin ([3]; ITC and HAC results, comparison in words): greater binding affinity; Kd [3, 5]: 4.11 µM; ΔH [3, 5]: 1.733 kcal/mol; ΔS ([3]; Table 3, ITC): 30.53 cal/mole ° C.; ΔG ([3]; Table 3, ITC): -6.309 kcal/mol
-0.167 ± 0.038 kcal/mol	3.4 ± 0.4 µM	7682 ± 43 cal/mol	H-[N(Orn)-N(Bu)-N(Spe)]4-NH2 [s12merG]	29.2 ± 1.0 min	–
-5.253 ± 0.105 kcal/mol	0.14 ± 0.004 µM	3992 ± 383 cal/mol	H-[N(Orn)-N(Orn)-N(Spe)]4-NH2 [s9merOrnOrn]	38.5 ± 5.0 min	enthalpy of reaction (sign) ([3]; ITC with heparin): exothermic
